Key:
COX-2 = target: T1, COX-2 (Mus musculus, UniProt Q05769); experiment: Assay for the COX-2 inhibitory activity using RAW 264.7 cell line (PGE2 inhibition); format: cell-based; details: RAW264.7, 10 nM test compound, RAW 264.7 cells, interferon γ and LPS, 18 hours, read-out: Cyclooxygenase (COX) Inhibition (%) COX-2 (10 nM)
T1 construct: host or cells: RAW 264.7 cells, aspirin-pretreated, then induced with interferon gamma and LPS
T1 sequence (Q05769 18-604): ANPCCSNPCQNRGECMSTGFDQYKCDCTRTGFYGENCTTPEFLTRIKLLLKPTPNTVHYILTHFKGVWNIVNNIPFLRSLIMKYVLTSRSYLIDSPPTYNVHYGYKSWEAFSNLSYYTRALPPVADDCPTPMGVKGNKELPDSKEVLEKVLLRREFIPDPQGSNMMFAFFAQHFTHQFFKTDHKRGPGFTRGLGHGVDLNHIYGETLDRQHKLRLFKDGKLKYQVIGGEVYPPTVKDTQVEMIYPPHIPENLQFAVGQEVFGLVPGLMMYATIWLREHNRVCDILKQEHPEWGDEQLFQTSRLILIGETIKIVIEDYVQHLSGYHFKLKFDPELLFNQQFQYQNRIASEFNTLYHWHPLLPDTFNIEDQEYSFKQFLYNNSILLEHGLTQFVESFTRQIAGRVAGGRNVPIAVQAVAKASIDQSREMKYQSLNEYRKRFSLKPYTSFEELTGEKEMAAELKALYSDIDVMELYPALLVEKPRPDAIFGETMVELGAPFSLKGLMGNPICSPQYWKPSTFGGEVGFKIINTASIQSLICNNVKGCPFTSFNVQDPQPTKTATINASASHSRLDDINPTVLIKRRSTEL
Method: Each well was treated with 250 μM of aspirin and incubated at 37° C. for 2 hours. After the culture media were replaced with new culture media, the new culture media were treated with a test compound (10 nM) and incubated for 30 minutes. Then, each well was treated with interferon γ (100 units/ml) and lipopolysaccharide (LPS, 100 ng/ml) and incubated for 18 hours. The culture media were transferred to other test tubes. The concentration of PGE2 was quantified by means of the EIA kit (Cayman Chemicals).
(§1) The percentages of the COX inhibition were calculated according to the following equation: % Inhibition=(concentration of PGE2 in test compound-untreated sample−concentration of PGE2 in test compound-treated sample)/(concentration of PGE2 in test compound-untreated sample)×100

COX-1 = target: T2, COX-1 (Homo sapiens, UniProt P23219); experiment: Assay for the COX-1 inhibitory activity using U-937 (PGE2 inhibition); format: cell-based; details: 1 μM test compound; U-937 human lymphoma cells; PGE2 after arachidonic acid; read-out: Cyclooxygenase (COX) Inhibition (%) COX-1 (1 μM)
T2 construct: host or cells: U-937 human lymphoma cells
T2 sequence (P23219 24-599): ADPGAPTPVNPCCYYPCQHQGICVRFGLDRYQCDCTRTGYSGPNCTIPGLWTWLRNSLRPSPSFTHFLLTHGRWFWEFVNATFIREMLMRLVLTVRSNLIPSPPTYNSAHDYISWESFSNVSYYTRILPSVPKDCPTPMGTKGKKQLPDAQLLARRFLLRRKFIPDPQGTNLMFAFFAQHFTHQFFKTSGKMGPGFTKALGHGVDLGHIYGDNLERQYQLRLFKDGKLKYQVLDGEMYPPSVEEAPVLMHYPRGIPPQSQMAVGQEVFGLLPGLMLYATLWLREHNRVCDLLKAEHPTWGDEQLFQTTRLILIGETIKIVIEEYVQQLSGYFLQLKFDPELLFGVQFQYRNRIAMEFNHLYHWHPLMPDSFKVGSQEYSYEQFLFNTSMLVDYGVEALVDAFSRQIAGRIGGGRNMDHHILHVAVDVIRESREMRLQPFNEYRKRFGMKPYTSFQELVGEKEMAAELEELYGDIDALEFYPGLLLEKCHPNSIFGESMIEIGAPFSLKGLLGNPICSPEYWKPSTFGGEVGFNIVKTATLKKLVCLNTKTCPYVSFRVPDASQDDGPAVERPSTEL
Method: The collected cells were diluted with HBSS (×1, Hank's balanced salt solution) to a concentration of 1×10^6 cells/ml. 1 ml of the dilute cell solution was placed into each well of 12-well plates. 5 μl of 1 μM solution of a test compound in DMSO and 5 μl of DMSO as a control were added to the wells. The wells were incubated in CO2 incubator at 37° C. for 15 minutes. Separately, 10 mM stock solution of arachidonic acid in ethanol was diluted ten times in ethanol to prepare 1 mM solution of arachidonic acid. Arachidonic acid acts as a substrate. 10 μl of the 1 mM solution of arachidonic acid was added to each well and incubated at CO2 incubator at 37° C. for 30 minutes. The cell solution of each well was placed in a centrifuge test tube and centrifuged at 10,000 rpm at 4° C. for 5 minutes. The concentration of PGE2 in the collected cells and the supernatant was quantified by means of a monoclonal kit (Cayman Chemicals). The percentages of PGE2 inhibition in a group of the test compound-treated cells in relation to a group of the DMSO-treated cells were calculated. Based on the calculated values, the COX-1 inhibitory activities were evaluated.
as §1

| inhibition at 0.01 µM (COX-2) | inhibition at 1 µM (COX-1) | SMILES |
| --- | --- | --- |
| 13.3% | 23.4% | C#CCSc1nc(-c2ccccc2)n(-c2ccc(S(N)(=O)=O)cc2)n1 [Example 45, 4-(3-prop-2-ynylthio-5-phenyl-1,2,4-triazole-1-yl)-benzenesulfonamide] |
| 12.2% | 34.2% | COc1ccc(-c2nc(OC(C)C)nn2-c2ccc(S(N)(=O)=O)cc2)cc1 [Example 46, 4-[3-isopropoxy-5-(4-methoxyphenyl)-1,2,4-triazole-1-yl]-benzenesulfonamide] |
| 10.6% | 25.4% | CC(C)Oc1nc(-c2ccccc2)n(-c2ccc(S(N)(=O)=O)cc2)n1 [Example 47, 4-(3-isopropoxy-5-phenyl-1,2,4-triazole-1-yl)-benzenesulfonamide] |
| 9.8% | 26.4% | CC(C)Oc1nc(-c2ccc(F)cc2)n(-c2ccc(S(N)(=O)=O)cc2)n1 [Example 48, 4-[3-isopropoxy-5-(4-fluorophenyl)-1,2,4-triazole-1-yl]-benzenesulfonamide] |
| 24.5% | 33.1% | CC(C)Sc1nc(-c2ccccc2)n(-c2ccc(S(N)(=O)=O)cc2)n1 [Example 49, 4-(3-isopropylthio-5-phenyl-1,2,4-triazole-1-yl)-benzenesulfonamide] |
| 16.1% | 28% | COc1ccc(-c2nc(OCc3ccccc3)nn2-c2ccc(S(N)(=O)=O)cc2)cc1F [Example 50, 4-[3-benzyloxy-5-(3-fluoro-4-methoxyphenyl)-1,2,4-triazole-1-yl]-benzenesulfonamide] |
| 23.4% | 21.4% | NS(=O)(=O)c1ccc(-n2nc(OCc3ccccc3)nc2-c2ccccc2)cc1 [Example 51, 4-(3-benzyloxy-5-phenyl-1,2,4-triazole-1-yl)-benzenesulfonamide] |
| 33.1% | 34.3% | C=CCOc1nc(-c2ccc(OC)cc2)n(-c2ccc(S(N)(=O)=O)cc2)n1 [Example 52, 4-[3-allyloxy-5-(4-methoxyphenyl)-1,2,4-triazole-1-yl]-benzenesulfonamide] |
| 16.2% | 20.4% | C=CCOc1nc(-c2ccccc2)n(-c2ccc(S(N)(=O)=O)cc2)n1 [Example 53, 4-(3-allyloxy-5-phenyl-1,2,4-triazole-1-yl)-benzenesulfonamide] |
| 15.5% | 26.4% | C=CCOc1nc(-c2ccc(F)cc2)n(-c2ccc(S(N)(=O)=O)cc2)n1 [Example 54, 4-[3-allyloxy-5-(4-fluorophenyl)-1,2,4-triazole-1-yl]-benzenesulfonamide] |
| 16.2% | 33.1% | COc1ccc(-c2nc(OCC(F)(F)F)nn2-c2ccc(S(N)(=O)=O)cc2)cc1 [Example 55, 4-[3-(2,2,2-trifluoroethoxy)-5-(4-methoxyphenyl)-1,2,4-triazole-1-yl]-benzenesulfonamide] |
| 27.7% | 37.2% | NS(=O)(=O)c1ccc(-n2nc(OCC(F)(F)F)nc2-c2ccc(F)cc2)cc1 [Example 56, 4-[3-(2,2,2-trifluoroethoxy)-5-(4-fluorophenyl)-1,2,4-triazole-1-yl]-benzenesulfonamide] |
| 26.6% | 21.4% | NS(=O)(=O)c1ccc(-n2nc(OCCCl)nc2-c2ccccc2)cc1 [Example 57, 4-[3-(2-chloroethoxy)-5-phenyl-1,2,4-triazole-1-yl]-benzenesulfonamide] |
| 30.4% | 34.3% | NS(=O)(=O)c1ccc(-n2nc(OC3CC3)nc2-c2ccccc2)cc1 [Example 58, 4-[3-cyclopropoxy-5-phenyl-1,2,4-triazole-1-yl]-benzenesulfonamide] |
| 27.2% | 22.6% | COc1ccc(-c2nc(OC)nn2-c2ccc(S(C)(=O)=O)cc2)cc1 [Example 59, 1-(4-methanesulfonylphenyl)-3-methoxy-5-(4-methoxylphenyl)-1H-1,2,4-triazole] |
| 23.4% | 23.4% | COc1nc(-c2ccccc2)n(-c2ccc(S(C)(=O)=O)cc2)n1 [Example 60, 1-(4-methanesulfonylphenyl)-3-methoxy-5-phenyl-1H-1,2,4-triazole] |
| 34.2% | 33.1% | CCOc1nc(-c2ccc(OC)cc2)n(-c2ccc(S(C)(=O)=O)cc2)n1 [Example 61, 1-(4-methanesulfonylphenyl)-3-ethoxy-5-(4-methoxylphenyl)-1H-1,2,4-triazole] |
| 25.4% | 26% | CCOc1nc(-c2ccccc2)n(-c2ccc(S(C)(=O)=O)cc2)n1 [Example 62, 1-(4-methanesulfonylphenyl)-3-ethoxy-5-phenyl-1H-1,2,4-triazole] |
| 26.4% | 22.6% | COc1ccc(-c2nc(OC(C)C)nn2-c2ccc(S(C)(=O)=O)cc2)cc1 [Example 63, 1-(4-methanesulfonylphenyl)-3-isopropoxy-5-(4-methoxyphenyl)-1H-1,2,4-triazole] |
| 33.1% | 23.4% | CC(C)Oc1nc(-c2ccccc2)n(-c2ccc(S(C)(=O)=O)cc2)n1 [Example 64, 1-(4-methanesulfonylphenyl)-3-isopropoxy-5-phenyl-1H-1,2,4-triazole] |

Reference: US7473700B2, “1,2,4-triazole derivatives, processes for the preparation thereof, and pharmaceutical compositions containing the same” (CJ Corporation, priority 2002, dated 2009)
